Reference: the supplement of paper PMC10326909

Experiment: ESI positive response factor (isotope-corrected peak area per molar concentration) in SFC/ESI/HRMS (area units per M); higher = higher ionization efficiency
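Note: standards in acetonitrile/water run in triplicate on a zwitterionic HILIC column, CO2–methanol gradient containing 20 mmol/L ammonium acetate, postcolumn makeup flow, Orbitrap full-scan detection.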

| Compound | ESI positive response factor (0.0175 µM) | ESI positive response factor (0.0875 µM) | ESI positive response factor (0.175 µM) | ESI positive response factor (0.35 µM) | ESI positive response factor (0.875 µM) | ESI positive response factor (1.75 µM) | ESI positive response factor (0.0122 µM) | ESI positive response factor (0.0244 µM) | ESI positive response factor (0.061 µM) | ESI positive response factor (0.122 µM) | ESI positive response factor (0.244 µM) | ESI positive response factor (0.035 µM) |
| --- | --- | --- | --- | --- | --- | --- | --- | --- | --- | --- | --- | --- |
| C1CN(CCOCCN2CCOCC2)CCO1 [4,4'-(Oxydi-2,1-ethanediyl)bismorpholine] | 4.89e+17 | 1.92e+17 | 3.18e+17 | 3.23e+17 | 4.13e+17 | 3.43e+17 | – | – | – | – | – | – |
| Cc1cc(=O)oc2cc(O)ccc12 [4-Methylumbelliferone] | – | – | – | – | – | – | 7.52e+16 | 8.88e+16 | 7.61e+16 | 7.61e+16 | 7.56e+16 | – |
| O=c1ccnc[nH]1 [4-Pyrimidinol] | 1.78e+16 | – | – | – | – | – | – | – | – | – | – | 2.97e+16 |
| Cn1c(N)c(NC=O)c(=O)n(C)c1=O [6-Amino-1,3dimethyl-5-(formylamino)uracil] | – | 8.08e+14 | – | 2.17e+15 | 2.09e+15 | 2.18e+15 | – | – | – | – | – | – |
| C#C[C@]1(O)CC[C@H]2[C@@H]3CCc4cc(O)ccc4[C@H]3CC[C@@]21C [17-Alpha-Ethinylestradiol] | – | 1.85e+16 | 1.59e+16 | 1.71e+16 | – | – | – | – | – | – | – | 1.46e+16 |
| CC(=O)NCCCS(=O)(=O)O [Acamprosate] | – | – | 3.1e+15 | 3.14e+15 | 3.18e+15 | 3.25e+15 | – | – | – | – | – | – |
| CC(=O)Nc1ccc(O)cc1 [Acetaminophen] | 3.61e+16 | 4.18e+16 | 3.74e+16 | 4.29e+16 | – | – | – | – | – | – | – | 4.56e+16 |
| CC(=O)OCC[N+](C)(C)C [Acetylcholine] | 2.2e+17 | 2.4e+17 | 2.16e+17 | 2.13e+17 | – | – | – | – | – | – | – | 1.98e+17 |
| Nc1ncnc2c1ncn2C1OC(CO)C(O)C1O (configuration not stated) [Adenosine] | – | 1.26e+17 | – | – | – | – | – | – | – | – | – | 1.46e+17 |
| CN(C)CCC=C1c2ccccc2CCc2ccccc21 [Amitriptyline] | – | 3.69e+17 | 4.36e+17 | 4.54e+17 | – | – | – | – | – | – | – | 4.1e+17 |
| COC(=O)C1=CCCN(C)C1 [Arecolin] | 4.44e+17 | 4.13e+17 | 3.78e+17 | 3.77e+17 | – | – | – | – | – | – | – | 4.27e+17 |
| COC(=O)NS(=O)(=O)c1ccc(N)cc1 [Asulam] | – | 1.31e+16 | 1.29e+16 | 1.46e+16 | 1.49e+16 | 1.43e+16 | – | – | – | – | – | 1.24e+16 |
| CC(C)NCC(O)COc1ccc(CC(N)=O)cc1 (configuration not stated) [Atenolol] | 1.75e+17 | 1.82e+17 | 1.75e+17 | 1.8e+17 | – | – | – | – | – | – | – | 1.81e+17 |
| CCNc1nc(Cl)nc(NC(C)C)n1 [Atrazine] | 1.04e+18 | 9.8e+17 | 9.03e+17 | – | – | – | – | – | – | – | – | 1.07e+18 |
| COP(=O)(OC)SCn1c(=O)oc2cc(Cl)cnc21 [Azamethiphos] | 6.62e+17 | 6.44e+17 | 6.11e+17 | – | – | – | – | – | – | – | – | 7.29e+17 |
| O=c1[nH]sc2ccccc12 [Benzisothiazolinone] | – | 1.52e+16 | 1.36e+16 | 1.55e+16 | – | – | – | – | – | – | – | 1.45e+16 |
| C[N+](C)(C)CC(=O)O [Betaine] | 1.5e+17 | 1.14e+17 | – | – | – | – | – | – | – | – | – | 1.36e+17 |
| CCCCC(CC)CNCC(CC)CCCC (configuration not stated) [Bis(2-ethylhexyl)amine] | 8.07e+17 | 9.48e+17 | 9.83e+17 | – | – | – | – | – | – | – | – | 8.73e+17 |
| CC(C)NCC(O)COc1ccc(C(=O)O)cc1 (configuration not stated) [Bisoprolol-M3] | 1.43e+17 | 1.65e+17 | 1.64e+17 | 1.6e+17 | – | – | – | – | – | – | – | 1.76e+17 |
| CCC[C@@H]1O[C@@H]2C[C@H]3[C@@H]4CCC5=CC(=O)C=C[C@]5(C)[C@H]4[C@@H](O)C[C@]3(C)[C@]2(C(=O)CO)O1 [Budesonid] | 1.27e+17 | 1.25e+17 | 1.16e+17 | 1.25e+17 | – | – | – | – | – | – | – | 1.3e+17 |
| COc1ccc(O)c(C(C)(C)C)c1 [Butylated hydroxyanisole] | – | 3.78e+15 | 2.82e+15 | 3.32e+15 | 3.01e+15 | – | – | – | – | – | – | – |
| Cn1c(=O)c2c(ncn2C)n(C)c1=O [Caffeine] | 2.34e+17 | 2.03e+17 | – | – | – | – | – | – | – | – | – | 2.22e+17 |
| CCOc1nc2cccc(C(=O)O)c2n1Cc1ccc(-c2ccccc2-c2nnn[nH]2)cc1 [Candesartan] | 5.17e+16 | 8.12e+16 | 8.2e+16 | 8.92e+16 | 9.01e+16 | 8.46e+16 | – | – | – | – | – | 8.14e+16 |

| Compound | ESI positive response factor (0.0175 µM) | ESI positive response factor (0.0875 µM) | ESI positive response factor (0.175 µM) | ESI positive response factor (0.35 µM) | ESI positive response factor (0.875 µM) | ESI positive response factor (1.75 µM) | ESI positive response factor (0.0122 µM) | ESI positive response factor (0.0244 µM) | ESI positive response factor (0.061 µM) | ESI positive response factor (0.122 µM) | ESI positive response factor (0.244 µM) | ESI positive response factor (0.035 µM) |
| --- | --- | --- | --- | --- | --- | --- | --- | --- | --- | --- | --- | --- |
| CCNC(=O)[C@H](C)OC(=O)Nc1ccccc1 [Carbetamid] | 5.72e+16 | 6.85e+16 | 6.12e+16 | 6.45e+16 | – | – | – | – | – | – | – | 7.07e+16 |
| CNC(=O)Oc1cccc2c1OC(C)(C)C2 [Carbofuran] | 8.85e+16 | 8.68e+16 | 7.6e+16 | 9.93e+16 | – | – | – | – | – | – | – | 8.12e+16 |
| CC1=C(C(=O)Nc2ccccc2)SCCO1 [Carboxin] | 7.6e+16 | 1.07e+17 | 9.93e+16 | 1.1e+17 | – | – | – | – | – | – | – | 1.1e+17 |
| CON(C)C(=O)Nc1ccc(Br)c(Cl)c1 [Chlorbromuron] | – | 4.82e+16 | 4.62e+16 | 5.21e+16 | – | – | – | – | – | – | – | 4.74e+16 |
| CCOP(=O)(OCC)OC(=CCl)c1ccc(Cl)cc1Cl [Chlorfenvinphos] | 2.81e+17 | 3.25e+17 | 2.98e+17 | 4.34e+17 | – | – | – | – | – | – | – | 3.28e+17 |
| Nc1cnn(-c2ccccc2)c(=O)c1Cl [Chloridazon] | 7.49e+16 | 8.99e+16 | – | – | – | – | – | – | – | – | – | 1.01e+17 |
| C[N+](C)(C)CCCl [Chlormequate] | 1.55e+17 | 1.95e+17 | 1.76e+17 | 1.85e+17 | – | – | – | – | – | – | – | 1.26e+17 |
| COc1nc(C)nc(NC(=O)NS(=O)(=O)c2ccccc2Cl)n1 [Chlorsulfuron] | – | 4.88e+16 | 5.05e+16 | 5.61e+16 | 5.75e+16 | 5.77e+16 | – | – | – | – | – | 4.22e+16 |
| Cc1ccc(NC(=O)N(C)C)cc1Cl [Chlortoluron] | 1.29e+17 | 1.48e+17 | 1.28e+17 | 1.4e+17 | – | – | – | – | – | – | – | 1.32e+17 |
| CN=C(NC#N)NCCSCc1nc[nH]c1C [Cimetidine] | 6.5e+16 | 8.81e+16 | 8.23e+16 | 9.32e+16 | 8.86e+16 | – | – | – | – | – | – | 9.26e+16 |
| Nc1ccnc(=O)[nH]1 [Cytosine] | – | – | – | 2.81e+15 | 3.21e+15 | 3.05e+15 | – | – | – | – | – | – |
| CCN(CC)C(=O)c1cccc(C)c1 [DEET] | – | – | – | 4.74e+17 | 4.86e+17 | – | – | – | – | – | – | – |
| CN(C)N/N=C1/N=CN=C1C(N)=O [Dacarbazine] | – | 2.45e+15 | 5.22e+15 | – | – | – | – | – | – | – | – | – |
| Nc1ccc(S(=O)(=O)c2ccc(N)cc2)cc1 [Dapson] | 6.07e+16 | 8.16e+16 | – | – | – | – | – | – | – | – | – | 8.29e+16 |
| CCOP(=S)(OCC)Oc1cc(C)nc(C(C)C)n1 [Diazinon] | 3.13e+16 | 3.71e+16 | 5.13e+16 | – | – | – | – | – | – | – | – | 5.67e+16 |
| O=C(O)Cc1ccccc1Nc1c(Cl)cccc1Cl [Diclofenac] | – | – | – | 3.71e+15 | 5.3e+15 | 5.19e+15 | – | – | – | – | – | – |
| N#CN=C(N)N [Dicyandiamide] | – | 4.26e+15 | 3.9e+15 | 4.96e+15 | 6.05e+15 | 6.06e+15 | – | – | – | – | – | 3.07e+15 |
| CNC(=O)CSP(=S)(OC)OC [Dimethoate] | 5.46e+16 | 5.84e+16 | 5.04e+16 | 5.56e+16 | – | – | – | – | – | – | – | 5.3e+16 |
| COC(=O)CCCCCCCCC(=O)OC [Dimethylsebacate] | 7.67e+16 | 6.02e+16 | 5.72e+16 | – | – | – | – | – | – | – | – | 7.64e+16 |
| CN(C)C(=O)C(c1ccccc1)c1ccccc1 [Diphenamid] | 1.12e+17 | 1.09e+17 | 9.79e+16 | 1.13e+17 | – | – | – | – | – | – | – | 1.02e+17 |
| CN(C)CCOC(c1ccccc1)c1ccccc1 [Diphenhydramine] | 1.59e+17 | 2.16e+17 | 2.35e+17 | 2.4e+17 | 2.25e+17 | – | – | – | – | – | – | 2.23e+17 |
| CCN[C@H]1C[C@H](C)S(=O)(=O)c2sc(S(N)(=O)=O)cc21 [Dorzolamide] | – | 9.06e+15 | 1.22e+16 | 1.22e+16 | 1.24e+16 | 1.24e+16 | – | – | – | – | – | 8.5e+15 |
| CCOC(=O)[C@H](CCc1ccccc1)N[C@@H](C)C(=O)N1CCC[C@H]1C(=O)O [Enalapril] | 2.87e+17 | 3.2e+17 | 3.2e+17 | – | – | – | – | – | – | – | – | 3.29e+17 |
